ChEMBL document CHEMBL4138123, “Design, synthesis and biological evaluation of novel pyrazolochalcones as potential modulators of PI3K/Akt/mTOR pathway and inducers of apoptosis in breast cancer cells” (Eur J Med Chem, 2017)
Active and inactive are the calls of the source. The calls are words filed in the database; no cut-off is given here.

Legend:
SF-295 [1] = experiment: Cytotoxicity against human SF295 cells assessed as growth inhibition after 48 hrs by sulforhodamine B assay; format: functional; settings: SF-295, 48 h
SNB-75 [2] = experiment: Cytotoxicity against human SNB75 cells assessed as growth inhibition after 48 hrs by sulforhodamine B assay; format: functional; settings: SNB-75, 48 h
CAKI-1 [3] = experiment: Cytotoxicity against human Caki1 cells assessed as growth inhibition after 48 hrs by sulforhodamine B assay; format: functional; settings: CAKI-1, 48 h
MCF7 [4] = experiment: Induction of intrinsic apoptosis in human MCF7 cells assessed as effect on mitochondrial membrane depolarization by measuring mean fluorescence intensity at 2 uM after 18 hrs by DiOC6 staining-based FACS analysis (reference value: 463); format: functional
MCF7 [5] = experiment: Cell cycle arrest in human MCF7 cells assessed as accumulation at S phase at 2 uM after 48 hrs by flow cytometric analysis (reference value: 57.7%); format: functional
MCF7 [6] = experiment: Cell cycle arrest in human MCF7 cells assessed as accumulation at G2/M phase at 2 uM after 48 hrs by flow cytometric analysis (reference value: 8.1%); format: functional
MCF7 [7] = experiment: Inhibition of PI3K in human MCF7 cells assessed as downregulation of phosphorylated Akt levels at 2 uM after 24 hrs by Western blot analysis; format: cell-based
MCF7 [8] = experiment: Downregulation of mTOR protein expression in human MCF7 cells at 2 uM after 24 hrs by Western blot analysis; format: functional, cell-based
MCF7 [9] = experiment: Downregulation of Akt protein expression in human MCF7 cells at 2 uM after 48 hrs by Alexa/DAPI staining-based immunofluorescence analysis; format: functional, cell-based
MCF7 [10] = experiment: Downregulation of PI3K mRNA expression in human MCF7 cells at 2 uM after 48 hrs by qRT-PCR analysis; format: functional, cell-based
MCF7 [11] = experiment: Downregulation of Akt1 mRNA expression in human MCF7 cells at 2 uM after 48 hrs by qRT-PCR analysis; format: functional, cell-based
CAKI-1 [12] = experiment: Cytotoxicity against human Caki1 cells assessed as cell growth at 0.01 uM after 48 hrs by sulforhodamine B assay relative to control; format: functional; settings: CAKI-1, 48 h, read-out: Activity
SNB-75 [13] = experiment: Cytotoxicity against human SNB75 cells assessed as cell growth at 0.01 uM after 48 hrs by sulforhodamine B assay relative to control; format: functional; settings: SNB-75, 48 h, read-out: Activity
SF-295 [14] = experiment: Cytotoxicity against human SF295 cells assessed as cell growth at 0.01 uM after 48 hrs by sulforhodamine B assay relative to control; format: functional; settings: SF-295, 48 h, read-out: Activity
SF-295 [15] = experiment: Cytotoxicity against human SF295 cells assessed as cell growth at 0.1 uM after 48 hrs by sulforhodamine B assay relative to control; format: functional; settings: SF-295, 48 h, read-out: Activity
SNB-75 [16] = experiment: Cytotoxicity against human SNB75 cells assessed as cell growth at 0.1 uM after 48 hrs by sulforhodamine B assay relative to control; format: functional; settings: SNB-75, 48 h, read-out: Activity
CAKI-1 [17] = experiment: Cytotoxicity against human Caki1 cells assessed as cell growth at 0.1 uM after 48 hrs by sulforhodamine B assay relative to control; format: functional; settings: CAKI-1, 48 h, read-out: Activity
SF-295 [18] = experiment: Cytotoxicity against human SF295 cells assessed as cell growth at 1 uM after 48 hrs by sulforhodamine B assay relative to control; format: functional; settings: SF-295, 48 h, read-out: Activity
SNB-75 [19] = experiment: Cytotoxicity against human SNB75 cells assessed as cell growth at 1 uM after 48 hrs by sulforhodamine B assay relative to control; format: functional; settings: SNB-75, 48 h, read-out: Activity
CAKI-1 [20] = experiment: Cytotoxicity against human Caki1 cells assessed as cell growth at 1 uM after 48 hrs by sulforhodamine B assay relative to control; format: functional; settings: CAKI-1, 48 h, read-out: Activity
SNB-75 [21] = experiment: Cytotoxicity against human SNB75 cells assessed as cell growth at 10 uM after 48 hrs by sulforhodamine B assay relative to control; format: functional; settings: SNB-75, 48 h, read-out: Activity
CAKI-1 [22] = experiment: Cytotoxicity against human Caki1 cells assessed as cell growth at 10 uM after 48 hrs by sulforhodamine B assay relative to control; format: functional; settings: CAKI-1, 48 h, read-out: Activity
SF-295 [23] = experiment: Cytotoxicity against human SF295 cells assessed as cell growth at 100 uM after 48 hrs by sulforhodamine B assay relative to control; format: functional; settings: SF-295, 48 h, read-out: Activity
SNB-75 [24] = experiment: Cytotoxicity against human SNB75 cells assessed as cell growth at 100 uM after 48 hrs by sulforhodamine B assay relative to control; format: functional; settings: SNB-75, 48 h, read-out: Activity
CAKI-1 [25] = experiment: Cytotoxicity against human Caki1 cells assessed as cell growth at 100 uM after 48 hrs by sulforhodamine B assay relative to control; format: functional; settings: CAKI-1, 48 h, read-out: Activity
HOP-92 [26] = experiment: Cytotoxicity against human HOP92 cells assessed as growth inhibition after 48 hrs by sulforhodamine B assay; format: functional; settings: HOP-92, 48 h
SK-MEL-2 [27] = experiment: Cytotoxicity against human SK-MEL-2 cells assessed as cell growth at 0.01 uM after 48 hrs by sulforhodamine B assay relative to control; format: functional; settings: SK-MEL-2, 48 h, read-out: Activity
LOX IMVI [28] = experiment: Cytotoxicity against human LOXIMVI cells assessed as cell growth at 0.01 uM after 48 hrs by sulforhodamine B assay relative to control; format: functional; settings: read-out: Activity
HOP-92 [29] = experiment: Cytotoxicity against human HOP92 cells assessed as cell growth at 0.01 uM after 48 hrs by sulforhodamine B assay relative to control; format: functional; settings: HOP-92, 48 h, read-out: Activity
HOP-92 [30] = experiment: Cytotoxicity against human HOP92 cells assessed as cell growth at 0.1 uM after 48 hrs by sulforhodamine B assay relative to control; format: functional; settings: HOP-92, 48 h, read-out: Activity
LOX IMVI [31] = experiment: Cytotoxicity against human LOXIMVI cells assessed as cell growth at 0.1 uM after 48 hrs by sulforhodamine B assay relative to control; format: functional; settings: read-out: Activity
SK-MEL-2 [32] = experiment: Cytotoxicity against human SK-MEL-2 cells assessed as cell growth at 0.1 uM after 48 hrs by sulforhodamine B assay relative to control; format: functional; settings: SK-MEL-2, 48 h, read-out: Activity
HOP-92 [33] = experiment: Cytotoxicity against human HOP92 cells assessed as cell growth at 1 uM after 48 hrs by sulforhodamine B assay relative to control; format: functional; settings: HOP-92, 48 h, read-out: Activity
LOX IMVI [34] = experiment: Cytotoxicity against human LOXIMVI cells assessed as cell growth at 1 uM after 48 hrs by sulforhodamine B assay relative to control; format: functional; settings: read-out: Activity
SK-MEL-2 [35] = experiment: Cytotoxicity against human SK-MEL-2 cells assessed as cell growth at 1 uM after 48 hrs by sulforhodamine B assay relative to control; format: functional; settings: SK-MEL-2, 48 h, read-out: Activity
HOP-92 [36] = experiment: Cytotoxicity against human HOP92 cells assessed as cell growth at 10 uM after 48 hrs by sulforhodamine B assay relative to control; format: functional; settings: HOP-92, 48 h, read-out: Activity
LOX IMVI [37] = experiment: Cytotoxicity against human LOXIMVI cells assessed as cell growth at 10 uM after 48 hrs by sulforhodamine B assay relative to control; format: functional; settings: read-out: Activity
SK-MEL-2 [38] = experiment: Cytotoxicity against human SK-MEL-2 cells assessed as cell growth at 10 uM after 48 hrs by sulforhodamine B assay relative to control; format: functional; settings: SK-MEL-2, 48 h, read-out: Activity
HOP-92 [39] = experiment: Cytotoxicity against human HOP92 cells assessed as cell growth at 100 uM after 48 hrs by sulforhodamine B assay relative to control; format: functional; settings: HOP-92, 48 h, read-out: Activity
LOX IMVI [40] = experiment: Cytotoxicity against human LOXIMVI cells assessed as cell growth at 100 uM after 48 hrs by sulforhodamine B assay relative to control; format: functional; settings: read-out: Activity
SK-MEL-2 [41] = experiment: Cytotoxicity against human SK-MEL-2 cells assessed as cell growth at 100 uM after 48 hrs by sulforhodamine B assay relative to control; format: functional; settings: SK-MEL-2, 48 h, read-out: Activity

SMILES	LC50 (CAKI-1 [3]) [µM]	TGI (CAKI-1 [3]) [µM]	Flu intensity (MCF7 [4])	Activity (MCF7 [5]) [%]	Activity (MCF7 [6]) [%]	phospho-Akt downregulation (active/inactive) (MCF7 [7])	Activity (MCF7 [8])	Activity (MCF7 [9])	Activity (MCF7 [10])	Activity (MCF7 [11])	growth at 0.01 µM (CAKI-1 [12]) [%]	growth at 0.1 µM (CAKI-1 [17]) [%]	growth at 1 µM (CAKI-1 [20]) [%]	growth at 10 µM (CAKI-1 [22]) [%]	growth at 100 µM (CAKI-1 [25]) [%]	growth at 0.01 µM (SK-MEL-2 [27]) [%]	growth at 0.01 µM (LOX IMVI [28]) [%]	growth at 0.1 µM (LOX IMVI [31]) [%]	growth at 0.1 µM (SK-MEL-2 [32]) [%]	growth at 1 µM (LOX IMVI [34]) [%]	further results
COc1cc(C(=O)/C=C/c2cc(-c3ccc4c(c3)OCO4)n[nH]2)cc(OC)c1OC	26.1	5.65	313	59.1	1.98	Active	Active	Active	Active	Active	96	97	83	-27	-82	–	–	–	–	–	GI50 (SF-295 [1]): 2.58 µM; LC50 (SF-295 [1]): 36.4 µM; TGI (SF-295 [1]): 10.1 µM; GI50 (SNB-75 [2]): 2.4 µM; LC50 (concentration killing 50% of cells) (SNB-75 [2]): 26.1 µM; TGI (SNB-75 [2]): 7.27 µM; GI50 (CAKI-1 [3]): 1.99 µM; growth at 0.01 µM (SNB-75 [13]): 85%; growth at 0.01 µM (SF-295 [14]): 93%; growth at 0.1 µM (SF-295 [15]): 95%; growth at 0.1 µM (SNB-75 [16]): 87%; growth at 1 µM (SF-295 [18]): 85%; growth at 1 µM (SNB-75 [19]): 90%; growth at 10 µM (SNB-75 [21]): -14%; growth at 100 µM (SF-295 [23]): -89%; growth at 100 µM (SNB-75 [24]): -100%
COc1ccc(C(=O)/C=C/c2cc(-c3cc(OC)c(OC)c(OC)c3)n[nH]2)cc1	> 100	–	–	–	–	Active	Active	Active	Active	Active	95	93	89	-17	1	92	95	93	90	85	TGI (HOP-92 [26]): 3.04 µM; growth at 0.01 µM (HOP-92 [29]): 87%; growth at 0.1 µM (HOP-92 [30]): 83%; growth at 1 µM (HOP-92 [33]): 53%; growth at 1 µM (SK-MEL-2 [35]): 97%; growth at 10 µM (HOP-92 [36]): -56%; growth at 10 µM (LOX IMVI [37]): -92%; growth at 10 µM (SK-MEL-2 [38]): 21%; growth at 100 µM (HOP-92 [39]): -36%; growth at 100 µM (LOX IMVI [40]): -32%; growth at 100 µM (SK-MEL-2 [41]): -50%
COc1ccc(C(=O)/C=C/c2cc(-c3cc(OC)c(OC)c(OC)c3)n[nH]2)cc1OC	19.4	5.46	294	43	13.1	Active	Active	Active	Active	Active	97	99	94	-33	-91	86	92	92	91	73	growth at 1 µM (SK-MEL-2 [35]): 98%; growth at 10 µM (LOX IMVI [37]): -93%; growth at 10 µM (SK-MEL-2 [38]): -81%; growth at 100 µM (LOX IMVI [40]): -79%; growth at 100 µM (SK-MEL-2 [41]): -96%
